Laboratory results as given in patent US20090253704A1, “PYRROLOTRIAZINONE DERIVATIVES FOR USE AS STEAROYL CoA DESATURASE INHIBITORS” (priority 2008, published 2009).

target: T1, Stearoyl-CoA desaturase (SCD) (Rattus norvegicus, UniProt P07308); assay: SCD assay in rat liver microsomes ([3H]stearoyl CoA desaturation, adapted from Talamo and Bloch); format: biochemical; conditions: rat liver microsomes 0.2 mg/ml final, 30 min preincubation, 45 min reaction at room temperature
T1 construct: from tissue; host or cells: liver microsomes of male Sprague Dawley rats, SCD induced by carbohydrate-rich diet
T1 sequence (P07308 1-358): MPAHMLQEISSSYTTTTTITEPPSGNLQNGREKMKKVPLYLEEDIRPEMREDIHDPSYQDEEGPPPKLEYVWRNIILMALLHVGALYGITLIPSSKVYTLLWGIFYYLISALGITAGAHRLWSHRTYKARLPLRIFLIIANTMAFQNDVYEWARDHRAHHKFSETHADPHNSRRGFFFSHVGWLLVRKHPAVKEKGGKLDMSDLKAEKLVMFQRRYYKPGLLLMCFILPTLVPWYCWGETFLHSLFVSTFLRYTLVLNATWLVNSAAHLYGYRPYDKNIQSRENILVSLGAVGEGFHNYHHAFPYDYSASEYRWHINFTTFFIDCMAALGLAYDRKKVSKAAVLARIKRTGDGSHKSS
Description: The identification of compounds of the invention as SCD inhibitors was readily accomplished using the SCD enzyme and microsomal assay procedure described in Talamo and Bloch (1969) Analytical Biochemistry 29:300-304.
The rat liver microsomes were collected according to the procedure described in Ozols (1990) Methods Enzm, 182:225.
Male Spraque Dawley Rats were placed on regimented fasting protocol for one week to stimulate SCD enzymatic activity. 48-hour periods were alternated between feeding and fasting to induce and down-regulate SCD activity with SCD activity being induced via carbohydrate rich diet prior to liver perfusion and collection.
The rats were anesthetized with Isoflurane inhalation anesthetic, the liver perfused with cold phosphate buffered saline (PBS), weighed, and chilled in cold homogenization buffer (250 mM sucrose, 10 mM Tris, 1 mM EDTA, pH 7.6).
The livers were finely minced and placed in homogenization tube. Homogenization buffer (40 mL) was added to the homogenization tube and the liver homogenized and centrifuged in a pre-chilled […] for 10 min at 4° C.
Following centrifugation, the supernatant was collected and the pellet removed and discarded. The supernatant was centrifuge at 10,000 G for 35 minutes. Following centrifugation, the supernatant was collect and the pellet discarded. The supernatant was then centrifuged in a pre-chilled 45-Ti rotor at 130,000 G (41,000 RPM) for 90 minutes at 4° C.
The supernatant was then aspirated off and the collected microsomal pellet washed in 25 mL of Glycerol PBS (1×PBS 7.4, 20% Glycerol) and resuspended in 4-5 volumes of Glycerol PBS.
The protein concentration of the microsomal preparation was determined by BCA assay (Pierce) and the microsomes were aliquoted and stored at −80° C.
Biobeads were ground to a smaller size in a mortar and pestle and resuspended in 3.6% TCA. The beads were then filtered through […] mesh.
SCD was determined in the desaturase assay buffer. This assay buffer contained 0.1 M Tris buffer, pH 7.2, 2 mM NADH, 4.8 mM ATP, 0.5 mM CoA, 4.8 mM MgCl2, and 0.1% BSA.
The Procedure for the SCD Assay (Adapted from Talamo and Bloch (1969) Analytical Biochemistry 29:300-304)
1 μl of each compound of Formula I was added to an assay plate by a low volume (0.5-10 μL) multichannel pipette. A DMSO control was also prepared. The microsomes were quickly thawed and added to assay buffer so that a concentration of 0.4 mg/ml was achieved (0.2 mg/ml assay final). 50 μl of the microsome suspension in assay buffer was then added into each well in the compound assay plate, the plate was covered, and the microsomes preincubated with the compounds for 30 minutes on the orbital shaker, 50-75 rpm, at room temperature.
After preincubation, the reaction was initiated by the addition of 50 μl of substrate solution (20 μM Stearoyl CoA, [3H]Stearoyl CoA, 74 nCi) to the preincubated microsomes/compound suspensions in MilliQ (Millipore) H2O. The reaction mixtures were then incubated for 45 minutes on the orbital shaker at 50-75 rpm at room temperature.
The reaction was terminated by the addition of 10 μl of 21% trichloroacetic acid (TCA) to the reaction mixture followed incubation on the orbital shaker for 30 minutes at 50-75 rpm at room temperature followed by centrifugation for 5 minutes at 3700 rpm.
50 μl of a 6% Bio-Bead suspension in H2O was added to the reaction mixture and the assay plate was sealed. The Bio-Bead mixture was incubated on the orbital shaker for 1 hour, 100-150 rpm at room temperature, and then the mixture was centrifuged at 2000 g for 5 minutes to pellet the Bio-Beads.
25 μl of the supernatant was harvested from each well and transferred to a detection plate. 100 μl of OptiPhase SuperMix scintillation cocktail (containing sufficient NaOH to neutralize the TCA) was added and the solutions mixed by vigorous shaking (300-400 rpm) for 5 minutes at room temperature.

| Compound | IC50 |
| --- | --- |
| O=C(CO)Nc1cc2c(=O)n(CCOc3ccccc3Cl)cnn2c1 [N-(3-(2-(2-chlorophenoxy)ethyl)-4-oxo-3,4-dihydropyrrolo[1,2-f][1,2,4]triazin-6-yl)-2-hydroxyacetamide] | 5.6 µM |
| O=C(Nc1cc2c(=O)n(Cc3ccc(Cl)c(Cl)c3)cnn2c1)C(O)CO (stereo not drawn) [N-(3-(3,4-dichlorobenzyl)-4-oxo-3,4-dihydropyrrolo[1,2-f][1,2,4]triazin-6-yl)-2,3-dihydroxypropanamide] | 0.01 µM |
| O=C(CO)Nc1cc2c(=O)n(Cc3ccc(Cl)c(Cl)c3)cnn2c1 [N-(3-(3,4-dichlorobenzyl)-4-oxo-3,4-dihydropyrrolo[1,2-f][1,2,4]triazin-6-yl)-2-hydroxyacetamide] | 0.25 µM |
| CCCCCCC(=O)Nc1cc2c(=O)n(Cc3ccc(Cl)c(Cl)c3)cnn2c1 [N-(3-(3,4-dichlorobenzyl)-4-oxo-3,4-dihydropyrrolo[1,2-f][1,2,4]triazin-6-yl)heptanamide] | 27 µM |
| O=C(CO)Nc1cc2c(=O)n(CCCOc3cc(Cl)ccc3Cl)cnn2c1 [N-(3-(3-(2,5-dichlorophenoxy)propyl)-4-oxo-3,4-dihydropyrrolo[1,2-f][1,2,4]triazin-6-yl)-2-hydroxyacetamide] | 0.24 µM |

More lines, now with the values ahead:

| IC50 | Compound |
| --- | --- |
| 0.32 µM | O=C(CO)Nc1cc2c(=O)n(Cc3ccc(Cl)c(C(F)(F)F)c3)cnn2c1 [N-(3-(4-chloro-3-(trifluoromethyl)benzyl)-4-oxo-3,4-dihydropyrrolo[1,2-f][1,2,4]triazin-6-yl)-2-hydroxyacetamide] |
| 0.83 µM | O=C(Nc1cc2c(=O)n(CCc3ccc(Cl)cc3)cnn2c1)C(O)CO (stereo not drawn) [N-(3-(4-chlorophenethyl)-4-oxo-3,4-dihydropyrrolo[1,2-f][1,2,4]triazin-6-yl)-2,3-dihydroxypropanamide] |
| 14 µM | O=C(CO)Nc1cc2c(=O)n(CCc3ccc(Cl)cc3)cnn2c1 [N-(3-(4-chlorophenethyl)-4-oxo-3,4-dihydropyrrolo[1,2-f][1,2,4]triazin-6-yl)-2-hydroxyacetamide] |
| 1.6 µM | O=C(Nc1cc2c(=O)n(Cc3ccc(Cl)c(Cl)c3)cnn2c1)OCc1ccccc1 [benzyl 3-(3,4-dichlorobenzyl)-4-oxo-3,4-dihydropyrrolo[1,2-f][1,2,4]triazin-6-ylcarbamate] |
